Data reported in article PMC4749168, “Potentiation of ΔF508- and G551D-CFTR-Mediated Cl^- Current by Novel Hydroxypyrazolines” (PLoS ONE, 2016).

Legend:
ΔF508-CFTR [1] = molecular target: T1, ΔF508-CFTR (Homo sapiens, UniProt P13569, DEL508-508); assay: YFP quenching assay of VX-809-mediated rescue in A549 cells expressing ΔF508-CFTR; type: cell-based; set-up: expressed in transfected cells; host or cells: Fisher rat thyroid (FRT) cells, co-expressing halide sensor YFP-H148Q/I152L; provided by Dr. Alan Verkman; conditions: 48 h, combined with 5 μM VX-809, 10 μM CP7q or 5 μM VX-770, vs VX-809 alone
T1 sequence (P13569 with tags, fused parts or gaps DEL508-508): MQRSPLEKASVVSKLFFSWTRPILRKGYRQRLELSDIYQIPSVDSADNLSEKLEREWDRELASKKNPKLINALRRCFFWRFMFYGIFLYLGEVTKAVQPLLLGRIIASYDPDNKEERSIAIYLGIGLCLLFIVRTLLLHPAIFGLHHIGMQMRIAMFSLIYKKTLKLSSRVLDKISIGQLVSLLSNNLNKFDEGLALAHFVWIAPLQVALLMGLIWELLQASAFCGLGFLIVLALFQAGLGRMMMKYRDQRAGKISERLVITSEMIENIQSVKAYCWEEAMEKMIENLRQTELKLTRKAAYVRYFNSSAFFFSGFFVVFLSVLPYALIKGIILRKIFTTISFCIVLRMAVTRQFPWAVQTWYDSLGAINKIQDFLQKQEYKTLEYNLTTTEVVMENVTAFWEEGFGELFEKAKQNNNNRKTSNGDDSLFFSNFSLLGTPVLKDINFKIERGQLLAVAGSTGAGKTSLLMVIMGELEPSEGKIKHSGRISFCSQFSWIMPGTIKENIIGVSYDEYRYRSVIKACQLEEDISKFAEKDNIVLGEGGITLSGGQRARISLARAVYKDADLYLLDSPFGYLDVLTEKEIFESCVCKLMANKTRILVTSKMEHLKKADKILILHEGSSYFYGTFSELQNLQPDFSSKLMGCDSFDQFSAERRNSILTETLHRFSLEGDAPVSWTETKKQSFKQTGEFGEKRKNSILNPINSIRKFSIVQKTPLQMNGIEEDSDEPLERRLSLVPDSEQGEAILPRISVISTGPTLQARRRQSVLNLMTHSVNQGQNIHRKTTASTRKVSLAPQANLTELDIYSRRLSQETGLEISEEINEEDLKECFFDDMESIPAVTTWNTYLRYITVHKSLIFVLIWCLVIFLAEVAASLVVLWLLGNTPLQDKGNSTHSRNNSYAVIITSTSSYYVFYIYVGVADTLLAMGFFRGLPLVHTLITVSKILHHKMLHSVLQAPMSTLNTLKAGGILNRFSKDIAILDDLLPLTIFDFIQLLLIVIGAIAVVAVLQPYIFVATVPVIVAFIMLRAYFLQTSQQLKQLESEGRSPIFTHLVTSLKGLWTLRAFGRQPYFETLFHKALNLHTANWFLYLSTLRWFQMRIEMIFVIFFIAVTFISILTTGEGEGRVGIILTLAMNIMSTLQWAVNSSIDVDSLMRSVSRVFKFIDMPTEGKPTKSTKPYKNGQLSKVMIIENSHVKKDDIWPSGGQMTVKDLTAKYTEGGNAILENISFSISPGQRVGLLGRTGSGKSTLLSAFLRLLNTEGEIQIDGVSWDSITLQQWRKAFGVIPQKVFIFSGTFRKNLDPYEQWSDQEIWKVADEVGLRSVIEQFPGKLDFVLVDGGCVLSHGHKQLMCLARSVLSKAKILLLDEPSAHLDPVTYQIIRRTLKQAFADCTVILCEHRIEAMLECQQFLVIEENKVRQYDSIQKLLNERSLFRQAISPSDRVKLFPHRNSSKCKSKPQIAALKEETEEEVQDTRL
Protocol: Fisher rat thyroid (FRT) cells expressing human wild type-, ΔF508- and G551D-CFTR with a halide sensor YFP-H148Q/I152L were generously provided by Dr. Alan Verkman (University of California, San Francisco) and grown in F-12 Modified Coon´s medium supplemented with 10% FBS, 2 mM glutamine, 100 units/ml penicillin and 100 μg/ml streptomycin [30]. A549 cells were obtained from Korean Cell Line Bank (Seoul, Korea) and the cells were stably transfected with human ΔF508-CFTR and the halide sensor YFP-H148Q/I152L/F46L, and maintained in RPMI-1640 medium containing 10% fetal bovine serum (FBS), 100 units/ml penicillin and 100 μg/ml streptomycin. […]
FRT cells expressing wild type- or ΔF508-CFTR with the halide sensor YFP-H148Q/I152L were plated in 96-well black-walled microplates (Corning Inc., Corning, NY) at a density of 2 x10^4cells per well. […] Assays were done using FLUO star Omega microplate reader (BMG Labtech, Ortenberg, Germany) and MARS Data Analysis Software (BMG Labtech). […] After 10 min, 96-well plates were transferred to the microplate reader preheated to 37°C for fluorescence assay. Each well was assayed individually for CFTR-mediated I^- influx by recording fluorescence continuously (200 ms per point) for 2 s (baseline), then 100 μL of 140 mM I^- solution was added at 2 s and then YFP fluorescence was recorded for 14 s. […]

ΔF508-CFTR [2] = molecular target: T1, ΔF508-CFTR; assay: Immunoblot of ΔF508-CFTR band C/B in A549-ΔF508-CFTR cells; type: cell-based; set-up: expressed in transfected cells; conditions: 48 h, combined with 5 μM VX-809, 10 μM CP7q, vs VX-809 alone
Protocol: A549 cells stably expressing ΔF508-CFTR were lysed with cell lysis buffer (50 mM Tris-HCl, pH 7.4, 1% Nonidet P-40, 0.25% sodium deoxycholate, 150 mM NaCl, 1 mM EDTA, 1 mM Na3VO4, and protease inhibitor mixture). Whole cell lysates were centrifuged at 15,000 g for 10 min at 4°C to remove the cell debris, and equal amounts (80 μg protein/lane) of supernatant protein were separated by 4–12% Tris-glycine precast gel (KOMA BIOTECH, Seoul, Korea) and then transferred onto PVDF membrane (Millipore, Billerica, MA). Membrane was blocked with 5% non-fat skim milk in PBS including 0.05% Tween 20 for 1 hour at room temperature. This membrane was then incubated overnight with primary CFTR antibody (M3A7, Millipore, Billerica, MA). After washing with 0.05% Tween 20 in PBS (PBST), the blot was further incubated for 45 min at room temperature with an anti-mouse secondary antibody (Cell Signaling). The membrane was then washed three times with PBST for 5 minutes and then visualized using the ECL Plus western blotting detection system (GE Healthcare Amersham; Piscataway, NJ). The immunoblot results were analyzed quantitatively by ImageJ Software.

WT-CFTR = molecular target: T2, WT-CFTR (Homo sapiens, UniProt P13569); assay: Whole-cell patch-clamp in FRT cells expressing WT-CFTR; type: cell-based
T2 construct: expressed in transfected cells; host or cells: Fisher rat thyroid (FRT) cells, co-expressing halide sensor YFP-H148Q/I152L; provided by Dr. Alan Verkman
Protocol: Whole-cell patch-clamp recordings were performed on WT- or ΔF508-CFTR-expressing FRT cells. The bath solution contained (in mM): 140 NMDG-Cl, 1 CaCl2, 1 MgCl2, 10 glucose and 10 HEPES (pH 7.4). The pipette solution contained (in mM): 130 CsCl, 0.5 EGTA, 1 MgCl2, 1 Tris-ATP, and 10 HEPES (pH 7.2). Pipettes were pulled from borosilicate glass and had resistances of 3–5 MΩ after fire polishing. Seal resistances were between 3 and 10 GΩ. After establishing the whole-cell configuration, CFTR was activated by forskolin and/or CP7q. Whole-cell currents were elicited by applying hyperpolarizing and depolarizing voltage pulses from a holding potential of 0 mV to potentials between -80 mV and +80 mV in steps of 20 mV. Recordings were made at room temperature using an Axopatch-200B (Axon Instruments). Currents were digitized and analyzed using a Digidata 1440A converter (Axon Instruments), and pCLAMP 10.2 software (Molecular Devices, Sunnyvale, CA). Currents were low-pass filtered at 1 kHz and sampled at 5 kHz

HT-29 cells = assay: MTS cell viability assay; type: cell-based, human; conditions: 24 h, up to 10 μM
Protocol: HT-29 human colon adenocarcinoma cells were plated at a density of 1 x10^4 per cm^2on 96-well microplates. After 24 h incubation, cells were treated with hydroxypyrazolines and then incubated for 1 day. An equal amount of DMSO was added to the all control. The culture medium and the compounds were changed every 12 h. For MTS assay, the cells were reincubated with MTS for 1 hour. The soluble formazan produced by cellular reduction of MTS was quantified by measuring the absorbance at 490 nm with Infinite M200 (Tecan, Grödig, Austria) microplate reader. MTS assay was done using CellTiter 96® AQueous One Solution Cell Proliferation Assay kit (Promega, Madison, WI, USA).

Compound: COc1ccc(C2CC(c3ccc(O)cc3O)=NN2c2ccc(S(N)(=O)=O)cc2)c(OC)c1 (centres unmarked) [Compound 7q, 4-[3-(2,4-dihydroxyphenyl)-5-(2,4-dimethoxyphenyl)-4,5-dihydro-1H-pyrazol-1-yl] benzenesulfonamide]
- Effect on functional rescue of ΔF508-CFTR by VX-809 (iodide influx) (ΔF508-CFTR [1]): significantly increased
- Effect on ratio of band C to band B of ΔF508-CFTR (ΔF508-CFTR [2]): strongly increased
- Potentiation of whole-cell WT-CFTR Cl- current (WT-CFTR; 0.1 μM forskolin, 10 μM CP7q): strongly potentiated
- Activation of WT-CFTR without forskolin stimulation (WT-CFTR; whole cell patch-clamp, no forskolin): did not activate
- Cytotoxicity (cell viability, MTS) (HT-29 cells): no cytotoxicity
